This passage reports IC50 results from BindingDB's records for doi:10.1021/jm060133g (Pfizer, 2006).

Where only a bound is given, the exact number is not on record here.

For assay [1], the target named is Neprilysin (Canis familiaris). Kind of assay: Inhibition of dog NEP.

The IC50 is the concentration that inhibits the measured activity by half. Higher therefore signals a need for much substance. Take `CCCC(CC1(C(=O)N[C@@H]2CCCC[C@@H]2Cc2ccccc2)CCCC1)C(=O)O` (stereo partly drawn) [2-((1-(((1R,2R)-2-benzylcyclohexyl)carbamoyl)cyclopentyl)methyl)pentanoic acid]: the IC50 in “Inhibition of dog ACE” is > 3000 nM; in assay [1], 195 nM.
On the same counts, the results for `CCc1nnc(NC(=O)C2(CCC(=O)O)CCCC2)s1` [3-(1-((5-ethyl-1,3,4-thiadiazol-2-yl)carbamoyl)cyclopentyl)propanoic acid] are > 3000 nM and 237 nM.
The matching figures for `CCc1nnc(NC(=O)C2(CC(CCc3ccccc3)C(=O)O)CCCC2)s1` (stereo unspecified) [2-((1-((5-ethyl-1,3,4-thiadiazol-2-yl)carbamoyl)cyclopentyl)methyl)-4-phenylbutanoic acid]: > 3000 nM and 46 nM.
